Results published in US4370474A, “11-Deoxy-carminomycin compounds” (Farmitalia Carlo Erba S.p.A., priority 1978, dated 1983).
Structures can show the parent of a compound that is named as a salt. Where two headings read alike, the source gives them in different places.

Assays:
Solubility = assay type: physicochemical; settings: aglycone from acid hydrolysis
HeLa cells = test: Effect on HeLa cells viability in vitro; assay type: cell-based; settings: Homo sapiens, read-out: Effect of HeLa cells viability in vitro ID50
Experimental: (§1) The new antibiotics W, Y and Z have been tested against HeLa cells in vitro (time of exposure to the drugs: 24 hours), and on L 1210 and P 388 leukemia in mice in comparison with daunorubicin.
(a) HeLa cells were exposed to the drugs for 24 hrs, then plated.

P 388 leukemia = test: Antitumor activity on P 388 leukemia in mice; assay type: in vivo; settings: for P-388 Toxic deaths: evaluated on macroscopic findings
Experimental: as §1
(§2) (b) Mice were treated i.p. on day 1 after tumor cell inoculation.
(§3) (c) Evaluated on the basis of macroscopic findings.

L 1210 leukemia = test: Antitumor activity on L 1210 leukemia in mice; assay type: in vivo; settings: for L-1210 Toxic deaths: evaluated on macroscopic findings
Experimental: as §1, §2, §3

[1] = HeLa cells exposed to the drugs for 24 hrs, then plated
[2] = 1.0 mg/kg i.p. on day 1 after tumor cell inoculation
[3] = 1.2 mg/kg i.p. on day 1 after tumor cell inoculation
[4] = 1.9 mg/kg i.p. on day 1 after tumor cell inoculation
[5] = 2.9 mg/kg i.p. on day 1 after tumor cell inoculation
[6] = 4.4 mg/kg i.p. on day 1 after tumor cell inoculation
[7] = 6.6 mg/kg i.p. on day 1 after tumor cell inoculation

## CC(=O)[C@]1(O)Cc2cc3c(c(O)c2[C@@H](O)C1)C(=O)c1c(O)cccc1C3=O [aglycone of the antibiotic Y]
Solubility
  solubility in water: water insoluble

## C[C@@H]1O[C@@H](O[C@H]2C[C@](O)(C(=O)CO)Cc3cc4c(c(O)c32)C(=O)c2c(O)cccc2C4=O)C[C@H](N)[C@@H]1O [Antibiotic W.HCl]
HeLa cells; [1]
  IC50: 8.8 ng/mL
P 388 leukemia; 1.0 mg/kg i.p. on day 1
  P-388 Toxic deaths: 0/10
P 388 leukemia; [2]
  P-388 T/C: 159%
P 388 leukemia; 1.5 mg/kg i.p. on day 1
  P-388 Toxic deaths: 0/20
P 388 leukemia; 1.5 mg/kg i.p. on day 1 after tumor cell inoculation
  P-388 T/C: 172%
P 388 leukemia; 2.25 mg/kg i.p. on day 1
  P-388 Toxic deaths: 0/20
P 388 leukemia; 2.25 mg/kg i.p. on day 1 after tumor cell inoculation
  P-388 T/C: 163%
P 388 leukemia; 3.4 mg/kg i.p. on day 1
  P-388 Toxic deaths: 0/10
P 388 leukemia; 3.4 mg/kg i.p. on day 1 after tumor cell inoculation
  P-388 T/C: 190%
P 388 leukemia; 5.0 mg/kg i.p. on day 1
  P-388 Toxic deaths: 1/9
P 388 leukemia; 5.0 mg/kg i.p. on day 1 after tumor cell inoculation
  P-388 T/C: 204%

## CC(=O)[C@]1(O)Cc2cc3c(c(O)c2[C@@H](O[C@H]2C[C@H](N)[C@H](O)[C@H](C)O2)C1)C(=O)c1c(O)cccc1C3=O [Antibiotic Y.HCl]
HeLa cells; [1]
  IC50: 9.6 ng/mL
L 1210 leukemia; 0.8 mg/kg i.p. on day 1 after tumor cell inoculation
  L-1210 T/C: 111%
L 1210 leukemia; [3]
  L-1210 T/C: 128%
L 1210 leukemia; [4]
  L-1210 T/C: 122%
L 1210 leukemia; 2.9 mg/kg i.p. on day 1
  L-1210 Toxic deaths: 8/10
L 1210 leukemia; [5]
  L-1210 T/C: 111%
P 388 leukemia; [3]
  P-388 T/C: 145%
P 388 leukemia; [4]
  P-388 T/C: 159%

## CC[C@]1(O)Cc2cc3c(c(O)c2[C@@H](O[C@H]2C[C@H](N)[C@H](O)[C@H](C)O2)C1)C(=O)c1c(O)cccc1C3=O [Antibiotic Z.HCl]
HeLa cells; [1]
  IC50: 15 ng/mL
L 1210 leukemia; [5]
  L-1210 T/C: 125%
L 1210 leukemia; 4.4 mg/kg i.p. on day 1
  L-1210 Toxic deaths: 2/10
L 1210 leukemia; [6]
  L-1210 T/C: 131%
L 1210 leukemia; 6.6 mg/kg i.p. on day 1
  L-1210 Toxic deaths: 5/10
L 1210 leukemia; [7]
  L-1210 T/C: 137%
P 388 leukemia; [2]
  P-388 T/C: 140%
P 388 leukemia; 2.0 mg/kg i.p. on day 1 after tumor cell inoculation
  P-388 T/C: 140%
P 388 leukemia; 4.4 mg/kg i.p. on day 1
  P-388 Toxic deaths: 7/8
P 388 leukemia; [6]
  P-388 T/C: 100%

## COc1cccc2c1C(=O)c1c(O)c3c(c(O)c1C2=O)C[C@@](O)(C(C)=O)C[C@@H]3O[C@H]1C[C@H](N)[C@H](O)[C@H](C)O1 [Daunorubicin.HCl, daunorubicin, reference compound]
HeLa cells; HeLa, 24 h
  IC50: 7.5 ng/mL
L 1210 leukemia; [5]
  L-1210 T/C: 144-150%
L 1210 leukemia; 4.4 mg/kg i.p. on day 1
  L-1210 Toxic deaths: 1/20
L 1210 leukemia; [6]
  L-1210 T/C: 140-162%
L 1210 leukemia; 6.6 mg/kg i.p. on day 1
  L-1210 Toxic deaths: 3/19
L 1210 leukemia; [7]
  L-1210 T/C: 144-162%
P 388 leukemia; 2.9 mg/kg i.p. on day 1
  P-388 Toxic deaths: 2/8
P 388 leukemia; [5]
  P-388 T/C: 170%
P 388 leukemia; 4.4 mg/kg i.p. on day 1
  P-388 Toxic deaths: 6/8
P 388 leukemia; [6]
  P-388 T/C: 175%
P 388 leukemia; 6.6 mg/kg i.p. on day 1
  P-388 Toxic deaths: 7/8
P 388 leukemia; [7]
  P-388 T/C: 160%
